Experimental data: patent US7129198B1, “Use of benzotriazole UV absorbers” (Ciba Specialty Chemicals Corporation, priority 1999, dated 2006)

Legend:
Test in all cases: MIC in microtitre plates
Format in all cases: cell-based
[1] = test system: Epidermophyton floccosum DSM 10709; conditions: DSM10709, 48 hours at 37° C., ≦20% growth
Protocol: (§1) Mycological slant agar for the preculture of moulds. The test substances are predissolved in dimethyl sulfoxide (DMSO) and tested in a dilution series of 1:2. The test organisms are cultured overnight in CASO bouillon and rinsed off with 10 ml of 0.85% sodium chloride solution (+0.1% TritonX-100). The test organisms are adjusted to an organism count of 1–5×10^6 CFU/ml with 0.85% sodium chloride solution. The test substances are prepipetted into microtitre plates in an amount of 8 μl per well. Previously diluted organism suspensions are diluted 1:100 in CASO bouillon and added to the test substances in an amount of 192 μl per well. The test batches are incubated for 48 hours at 37° C. After incubation, the growth is determined by reference to the turbidity of the test batches (optical density) at 620 nm in a microplate reader. The minimum inhibitory concentration (MIC value) is the concentration of substance at which (compared with the growth of the control) an appreciable inhibition of the growth (≦20% growth) of the test organisms is ascertained. One microtitre plate is used for each test organism and substance concentration. All substances are tested in duplicate.

[2] = test system: Micrococcus luteus ATCC 9341; conditions: ATCC9341, 48 hours at 37° C., ≦20% growth
Protocol: as §1

[3] = test system: S. epidermidis ATCC 12228; conditions: Staphylococcus epidermidis, ATCC12228, 48 hours at 37° C., ≦20% growth
Protocol: as §1

[4] = test system: Trichophyton rubrum DSM 4167; conditions: DSM4167, 48 hours at 37° C., ≦20% growth
Protocol: as §1

P. ovale ATCC 14521 = conditions: Pityrosporum ovale, ATCC14521, 48 hours at 37° C., ≦20% growth
Protocol: as §1

[5] = test system: Salmonella choleraesuis ATCC 9184; conditions: Salmonella enterica, 48 hours at 37° C., ≦20% growth
Protocol: as §1

[6] = test system: Trichoderma longibrachiatum DSM 768; conditions: DSM768, 48 hours at 37° C., ≦20% growth
Protocol: as §1

[7] = test system: Candida albicans ATCC 10259; conditions: ATCC10259, 48 hours at 37° C., ≦20% growth
Protocol: as §1

[8] = test system: Streptococcus mutans ATCC 25175; conditions: ATCC25175, 48 hours at 37° C., ≦20% growth
Protocol: as §1

[9] = test system: Klebsiella pneumoniae ATCC 4352; conditions: ATCC4352, 48 hours at 37° C., ≦20% growth
Protocol: as §1

[10] = test system: Trichophyton mentagrophytes ATCC 9533; conditions: ATCC9533, 48 hours at 37° C., ≦20% growth
Protocol: as §1

[11] = test system: Corynebacterium xerosis ATCC 373; conditions: ATCC373, 48 hours at 37° C., ≦20% growth
Protocol: as §1

[12] = test system: Enterococcus hirae ATCC 10541; conditions: ATCC10541, 48 hours at 37° C., ≦20% growth
Protocol: as §1

## CCCCCCCC[N+](CC)(CC)CCCNC(=O)CCc1cc(-n2nc3ccccc3n2)c(O)c(C(C)(C)C)c1.[Br-] [compound of formula (108)]
[1]
  MIC: 12.5 µg/mL
[2]
  MIC: 3.12 µg/mL
[3]
  MIC: 3.12 µg/mL
[4]
  MIC: 25 µg/mL
P. ovale ATCC 14521
  MIC: > 25 µg/mL
[5]
  MIC: > 100 µg/mL
[6]
  MIC: 50 µg/mL
[7]
  MIC: 6.25 µg/mL
[8]
  MIC: 3.12 µg/mL
[9]
  MIC: > 100 µg/mL
[10]
  MIC: 100 µg/mL
[11]
  MIC: 3.12 µg/mL
[12]
  MIC: 3.12 µg/mL
